# Source: patent US20260364184A1, “COMPOUND BASED ON OXOISOINDOLINYL-SUBSTITUTED TETRAHYDROPYRIMIDINE-DIONE AND USE THEREOF” (GLUETACS THERAPEUTICS (SHANGHAI) CO., LTD., priority 2023, published 2026)
# Assays:
# Format in all cases: cell-based
# [1] = system: Human Multiple myeloma cell line (MM.1S); test: Inhibition of MM.1S cell proliferation (CellTiter luminescent viability); details: Homo sapiens, MM1.S, Table IA5, IRAK4 inhibitor-based, 96 hours; for inhibition at 0.01 µM: 10 nM, read-out: Inhibition Rate at 10 nM (%); for inhibition at 0.5 µM: 500 nM, read-out: Inhibition Rate at 500 nM (%)
# Outline: (§1)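 IC50 is fitted from luminescent viability (CellTiter-Meiluncell) curves. Nine-point, 5-fold dilution series (top stock 2000 μM) are added at 0.5 μL per 100 μL medium to cells plated the day before, with growth at 37 °C and 5% CO2.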
# [2] = system: Human myeloid monocytic leukemia cell line (MV-4-11); test: Inhibition of MV-4-11 cell proliferation (CellTiter luminescent viability); details: Homo sapiens, MV4-11, Table IA3, IRAK4 inhibitor-based, 96 hours; for inhibition at 0.01 µM: MV-4-11, 10 nM, read-out: Inhibition Rate at 10 nM (%); for inhibition at 0.5 µM: MV-4-11, 500 nM, read-out: Inhibition Rate at 500 nM (%)
# Outline: as §1
# IRAK4 = biological target: T1, IRAK4 (Homo sapiens, UniProt Q9NWZ3); test: Western blot degradation of IRAK4; details: hPBMC Cell; 24 hours
# T1 construct: expression of target proteins in cells; endogenous in cells
# T1 sequence (Q9NWZ3 1-460): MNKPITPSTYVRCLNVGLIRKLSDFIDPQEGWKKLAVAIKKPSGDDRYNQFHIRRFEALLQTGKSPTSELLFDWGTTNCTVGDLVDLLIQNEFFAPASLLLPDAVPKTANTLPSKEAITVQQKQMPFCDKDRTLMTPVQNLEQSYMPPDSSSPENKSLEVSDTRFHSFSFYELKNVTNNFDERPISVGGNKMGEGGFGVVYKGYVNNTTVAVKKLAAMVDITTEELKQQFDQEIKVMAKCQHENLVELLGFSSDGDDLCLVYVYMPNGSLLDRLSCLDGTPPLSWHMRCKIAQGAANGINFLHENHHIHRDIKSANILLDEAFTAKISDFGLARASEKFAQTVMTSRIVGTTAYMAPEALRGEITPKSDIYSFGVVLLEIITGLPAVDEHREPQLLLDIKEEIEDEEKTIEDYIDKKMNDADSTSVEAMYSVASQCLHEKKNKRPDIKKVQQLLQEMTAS
# Outline: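 Cells treated with compound, lysed, and target protein detected by Western blot (SDS-PAGE, nitrocellulose transfer). DC50 taken as the concentration giving band grayscale half that of DMSO control, estimated by concentration-response fitting; remaining protein (%) from target band normalised to internal control band; degradation (%) = 1 − remaining.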
# [3] = Inhibition of RPMI-8226 cell proliferation (CellTiter luminescent viability); details: Homo sapiens; Table IA4, IRAK4 inhibitor-based; RPMI-8226, 10 nM, 96 hours; read-out: Inhibition Rate at 10 nM (%)
# Method: (§2) The tumor cells used herein were cultured in a cell culture medium listed in table 3 at 37 °C in an incubator with 5% CO2. Prior to experimentation, all cell lines used were correctly identified by STR profiling, and tested negative for mycoplasma contamination using a mycoplasma detection kit through routine screenings.
# (§3) The IC50 values of the compounds of the present disclosure (including the compounds in Table 1, Table 2, and Examples 1-468) were determined using the CellTiter-Meiluncell Luminescent Cell Viability Assay Kit from Dalian Meilun Biotech Co., Ltd. The detailed procedure is as follows: Tumor cells were seeded in 96-well cell culture plates at the densities specified in Table 4. On the following day, the test compounds of the present disclosure were subjected to serial dilution. The dilution can be performed according to one of the following two methods: • (1) The first dilution method: The test compounds of the present disclosure (including the compounds in Table 1, Table 2, and Examples 1-468) were subjected to 5-fold serial dilutions starting from a highest concentration of 2000 μM, resulting in a total of 9 concentrations from high to low (2000, 400, 80, 16, 3.2, 0.64, 0.128, 0.0256, 0.00512 μM). Subsequently, 0.5 μL of the test compound dilution was transferred into the 96-well plate containing the cells, with each well containing 100 μL of cell culture medium. […] Into the 96-well plate, the diluted test compounds and corresponding detection reagents were added, resulting in final test compound concentrations of 500 nM and 10 nM, respectively. The experimental procedure is described below using the diluted 2 μM test compound as an example.
# (§4) 0.5 μL of the aforementioned diluted compound of the present disclosure (including the compounds in Table 1, Table 2, and Examples 1-468) was added to the seeded cells in 100 μL of medium, yielding a final test compound concentration of 10 nM. After the cells were treated with the compounds of the present disclosure for a specified period, the cell viability assay reagent was added to the culture medium according to the kit's instructions to determine cell viability. […] All controls were treated using the same procedure as the compounds of the present disclosure. The growth inhibition curves for the compounds of the present disclosure were plotted using Prism GraphPad software, and the IC50 values were calculated therefrom.
# [4] = system: Human B-Cell Lymphoma Cells (RPMI-8226); test: as above; details: Table IA4, IRAK4 inhibitor-based, RPMI-8226, 500 nM, 96 hours, read-out: Inhibition Rate at 500 nM (%)
# Method: as §2, §3, §4
Structure (SMILES),inhibition at 0.01 µM [1] [%],inhibition at 0.5 µM [1] [%],inhibition at 0.01 µM [2] [%],inhibition at 0.5 µM [2] [%],Degradation of substrate protein IRAK4 (substrate protein remaining %) (IRAK4),inhibition at 0.01 µM [3] [%],inhibition at 0.5 µM [4] [%]
"O=C1CCN(N2C(=O)c3ccc(CN4CCC(n5cc(NC(=O)c6coc(-c7ccnc(NCC(F)(F)F)c7)n6)c(C(F)F)n5)CC4)cc3C2=O)C(=O)N1 [GT-05188, N-(3-(difluoromethyl)-1-(1-((2-(2,4-dioxotetrahydropyrimidin-1(2H)-yl)-1,3-dioxoisoindolin-5-yl)methyl)piperidin-4-yl)-1H-pyrazol-4-yl)-2-(2-((2,2,2-trifluoroethyl)amino)pyridin-4-yl) oxazole-4-carboxamide]",10 to 15,30 to 40,36 to 45,80 to 100,A (0%≤substrate protein remaining %≤80%),30 to 40,40 to 60
"O=C1CCN(N2C(=O)c3ccc(N4CCC(CN5CCC(n6cc(NC(=O)c7cnn8ccc(N9CCOCC9)nc78)c(C(F)F)n6)CC5)CC4)cc3C2=O)C(=O)N1 [GT-05291, N-(3-(difluoromethyl)-1-(1-((1-(2-(2,4-dioxotetrahydropyrimidin-1(2H)-yl)-1,3-dioxoisoindolin-5-yl)piperidin-4-yl)methyl)piperidin-4-yl)-1H-pyrazol-4-yl)-5-morpholinopyrazolo[1,5-a]pyrimidine-3-carboxamide]",10 to 15,20 to 25,50 to 60,60 to 80,A (0%≤substrate protein remaining %≤80%),25 to 30,25 to 30
"CC(C)Nc1cc(-n2ccc3cc(C#N)cnc32)ncc1C(=O)NC1CCN(Cc2ccc3c(c2)CN(N2CCC(=O)NC2=O)C3=O)CC1 [GT-05319, 6-(5-cyano-1H-pyrrolo[2,3-b]pyridin-1-yl)-N-(1-((2-(2,4-dioxotetrahydropyrimidin-1(2H)-yl)-1-oxoisoindolin-5-yl)methyl)piperidin-4-yl)-4-((isopropyl)amino) nicotinamide]",30 to 40,30 to 40,,,A (0%≤substrate protein remaining %≤80%),30 to 40,40 to 60
"Cc1cc(-c2nc(C(=O)Nc3cc4oc(N5CCN(CC6CCN(c7cccc8c7C(=O)N(N7CCC(=O)NC7=O)C8=O)CC6)CC5)nc4nc3N3CC[C@@H](O)C3)co2)ccn1 [GT-05806, (R)—N-(2-(4-((1-(2-(2,4-dioxotetrahydropyrimidin-1(2H)-yl)-1,3-dioxoisoindolin-4-yl)piperidin-4-yl)methyl)piperazin-1-yl)-5-(3-hydroxypyrrolidin-1-yl)oxazolo[4,5-b]pyridin-6-yl)-2-(2-methylpyridin-4-yl) oxazole-4-carboxamide]",,,45 to 50,80 to 100,A (0%≤substrate protein remaining %≤80%),20 to 25,25 to 30
"O=C1CCN(N2C(=O)c3ccc(N4CCC(N5CCC(CN6CCC(n7cc(NC(=O)c8cnn9ccc(N%10C[C@H]%11C[C@@H]%10CO%11)nc89)c(C(F)F)n7)CC6)CC5)CC4)cc3C2=O)C(=O)N1 [GT-05816, 5-((1R,4R)-2-oxa-5-azabicyclo[2.2.1]heptan-5-yl)-N-(3-(difluoromethyl)-1-(1-((1′-(2-(2,4-dioxotetrahydropyrimidin-1(2H)-yl)-1,3-dioxoisoindolin-5-yl)-[1,4′-bipiperidin]-4-yl)methyl)piperidin-4-yl)-1H-pyrazol-4-yl)pyrazolo[1,5-a]pyrimidine-3-carboxamide]",,,-10 to -5,50 to 60,A (0%≤substrate protein remaining %≤80%),30 to 40,15 to 20
"CC(C)(O)c1cc2nc(C3CCN(CC4CCN(c5cccc6c5C(=O)N(N5CCC(=O)NC5=O)C6=O)CC4)CC3)sc2cc1NC(=O)c1cccc(C(F)(F)F)n1 [GT-05818, N-(2-(1-((1-(2-(2,4-dioxotetrahydropyrimidin-1(2H)-yl)-1,3-dioxoisoindolin-4-yl)piperidin-4-yl)methyl)piperidin-4-yl)-5-(2-hydroxypropan-2-yl)benzo[d]thiazol-6-yl)-6-(trifluoromethyl) picolinamide]",,,10 to 20,50 to 60,A (0%≤substrate protein remaining %≤80%),20 to 25,10 to 15
"O=C1CCN(N2C(=O)c3ccc(N4CC5CCC(C4)N5C[C@H]4CC[C@H](n5cc(NC(=O)c6cnn7ccc(N8C[C@H]9C[C@@H]8CO9)nc67)c(C(F)F)n5)CC4)cc3C2=O)C(=O)N1 [GT-05825, 5-((1R,4R)-2-oxa-5-azabicyclo[2.2.1]heptan-5-yl)-N-(3-(difluoromethyl)-1-((1r,4R)-4-((3-(2-(2,4-dioxotetrahydropyrimidin-1(2H)-yl)-1,3-dioxoisoindolin-5-yl)-3,8-diazabicyclo[3.2.1]octan-8-yl)methyl)cyclohexyl)-1H-pyrazol-4-yl)pyrazolo[1,5-a]pyrimidine-3-carboxamide]",,,,,A (0%≤substrate protein remaining %≤80%),15 to 20,25 to 30
"COc1cc2nn([C@H]3CC[C@H](CN4C5CC4CN(c4ccc6c(c4)C(=O)N(N4CCC(=O)NC4=O)C6=O)C5)CC3)cc2cc1NC(=O)c1cccc(C(F)(F)F)n1 [GT-08653, N-(2-((1r,4r)-4-((3-(2-(2,4-dioxotetrahydropyrimidin-1(2H)-yl)-1,3-dioxoisoindolin-5-yl)-3,6-diazabicyclo[3.1.1]heptan-6-yl)methyl)cyclohexyl)-6-methoxy-2H-indazol-5-yl)-6-(trifluoromethyl) picolinamide]",,,,,A (0%≤substrate protein remaining %≤80%),15 to 20,25 to 30
"COc1cc2nn([C@H]3CC[C@H](CN4CCN(c5cccc6c5C(=O)N(N5CCC(=O)NC5=O)C6=O)CC4)CC3)cc2cc1NC(=O)c1cccc(C(F)(F)F)c1 [GT-08668, N-(2-((1r,4r)-4-((4-(2-(2,4-dioxotetrahydropyrimidin-1(2H)-yl)-1,3-dioxoisoindolin-4-yl)piperazin-1-yl)methyl)cyclohexyl)-6-methoxy-2H-indazol-5-yl)-3-(trifluoromethyl)benzamide]",,,,,A (0%≤substrate protein remaining %≤80%),20 to 25,30 to 40
